Data as given in patent publication US10597388B2, “Pyridazinone herbicides” (FMC CORPORATION, priority 2014, dated 2020).

How the values were obtained:
Test in all cases: Test D controlled growth environment herbicide test, pre- and postemergence
Format in all cases: in vivo
[1] = test system: Russian thistle (Salsola kali)
In short: (§1)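 Rating is visual, 0–100 scale (100 = complete control), made against untreated plants 14–21 d after treatment in controlled growth conditions. Postemergence sprays went onto 1- to 4-leaf plants in peat medium; preemergence sprays onto silt loam after sowing; formulation included a surfactant.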

[2] = test system: barley, winter (winter barley, Hordeum vulgare)
In short: as §1

[3] = test system: bromegrass, downy (downy bromegrass, Bromus tectorum)
In short: as §1

[4] = test system: chickweed (common chickweed, Stellaria media)
In short: as §1

[5] = test system: deadnettle (henbit deadnettle, Lamium amplexicaule)
In short: as §1

[6] = test system: field poppy (Papaver rhoeas)
In short: as §1

[7] = test system: galium (catchweed bedstraw, Galium aparine)
In short: as §1

kochia (Kochia scoparia) = test system: kochia (Kochia scoparia)
In short: as §1

[8] = test system: lambsquarters (Chenopodium album)
In short: as §1

[9] = test system: mustard, wild (wild mustard, Sinapis arvensis)
In short: as §1

[10] = test system: speedwell (bird's-eye speedwell, Veronica persica)
In short: as §1

[11] = test system: wheat, winter (winter wheat, Triticum aestivum)
In short: as §1

[12] = test system: windgrass (Apera spica-venti)
In short: as §1

[13] = Postemergence, 31 g ai/ha, scale 0 to 100 (0 no effect, 100 complete control)
[14] = Postemergence, 125 g ai/ha, visual rating on scale 0 (no effect) to 100 (complete control), 14 to 21 d
[15] = Postemergence, 250 g ai/ha, scale 0 to 100 (0 no effect, 100 complete control)
[16] = Preemergence, 62 g ai/ha, scale 0 to 100 (0 no effect, 100 complete control)
[17] = Preemergence, 125 g ai/ha, scale 0 to 100 (0 no effect, 100 complete control)
[18] = Preemergence, 250 g ai/ha, scale 0 to 100 (0 no effect, 100 complete control)
[19] = postemergence, 62 g ai/ha, scale 0 to 100, 0 no effect, 100 complete control

Compound: CC(=O)Oc1c(C)nn(C)c(=O)c1-c1c(C)sc2c(C)cc(C)cc12 [Compound 27]
- Russian Thistle plant response rating [1, 13]: 65
- Plant response rating, Russian Thistle [1, 14]: 70
- Plant response rating, Russian Thistle [1, 15]: 70
- Plant response rating (scale of 0 to 100), Russian Thistle ([1]; Preemergence, 31 g ai/ha): 0
- Plant response rating, Russian Thistle [1, 16]: 10
- Plant response rating, Russian Thistle [1, 17]: 65
- Plant response rating, Russian Thistle [1, 18]: 75
- Plant response rating, Russian Thistle [1, 19]: 75
- Plant response rating, Barley, Winter [2, 13]: 0
- Plant response rating, Barley, Winter [2, 14]: 5
- Plant response rating, Barley, Winter [2, 15]: 5
- Plant response rating (scale of 0 to 100), Barley, Winter ([2]; Preemergence, 31 g ai/ha): 0
- Plant response rating, Barley, Winter [2, 16]: 0
- Plant response rating, Barley, Winter [2, 17]: 10
- Barley, Winter plant response rating [2, 18]: 15
- Plant response rating, Barley, Winter [2, 19]: 0
- Bromegrass, Downy plant response rating [3, 13]: 15
- Plant response rating, Bromegrass, Downy [3, 14]: 55
- Plant response rating, Bromegrass, Downy [3, 15]: 70
- Plant response rating (scale of 0 to 100), Bromegrass, Downy ([3]; Preemergence, 31 g ai/ha): 35
- Plant response rating, Bromegrass, Downy [3, 16]: 55
- Plant response rating, Bromegrass, Downy [3, 17]: 85
- Plant response rating, Bromegrass, Downy [3, 18]: 85
- Plant response rating, Bromegrass, Downy [3, 19]: 25
- Chickweed plant response rating [4, 13]: 95
- Plant response rating, Chickweed [4, 14]: 100
- Plant response rating, Chickweed [4, 15]: 100
- Plant response rating (scale of 0 to 100), Chickweed ([4]; Preemergence, 31 g ai/ha): 100
- Plant response rating, Chickweed [4, 16]: 100
- Plant response rating, Chickweed [4, 17]: 100
- Plant response rating, Chickweed [4, 18]: 100
- Plant response rating, Chickweed [4, 19]: 100
- Deadnettle plant response rating [5, 13]: 5
- Plant response rating, Deadnettle [5, 14]: 30
- Plant response rating, Deadnettle [5, 15]: 60
- Plant response rating (scale of 0 to 100), Deadnettle ([5]; Preemergence, 31 g ai/ha): 0
- Plant response rating, Deadnettle [5, 16]: 0
- Plant response rating, Deadnettle [5, 17]: 55
- Plant response rating, Deadnettle [5, 18]: 80
- Plant response rating, Deadnettle [5, 19]: 5
- Field Poppy plant response rating [6, 13]: 85
- Plant response rating, Field Poppy [6, 14]: 100
- Plant response rating, Field Poppy [6, 15]: 100
- Plant response rating (scale of 0 to 100), Field Poppy ([6]; Preemergence, 31 g ai/ha): 100
- Plant response rating, Field Poppy [6, 16]: 100
- Plant response rating, Field Poppy [6, 17]: 100
- Plant response rating, Field Poppy [6, 18]: 100
- Plant response rating, Field Poppy [6, 19]: 100
- Galium plant response rating [7, 13]: 100
- Plant response rating, Galium [7, 14]: 100
- Plant response rating, Galium [7, 15]: 100
- Plant response rating (scale of 0 to 100), Galium ([7]; Preemergence, 31 g ai/ha): 60
- Plant response rating, Galium [7, 16]: 70
- Plant response rating, Galium [7, 17]: 85
- Plant response rating, Galium [7, 18]: 100
- Plant response rating, Galium [7, 19]: 100
- Kochia plant response rating (kochia (Kochia scoparia); [13]): 45
- Plant response rating, Kochia (kochia (Kochia scoparia); [14]): 55
- Plant response rating, Kochia (kochia (Kochia scoparia); [15]): 75
- Plant response rating (scale of 0 to 100), Kochia (kochia (Kochia scoparia); Preemergence, 31 g ai/ha): 0
- Plant response rating, Kochia (kochia (Kochia scoparia); [16]): 20
- Plant response rating, Kochia (kochia (Kochia scoparia); [17]): 30
- Plant response rating, Kochia (kochia (Kochia scoparia); [18]): 60
- Plant response rating, Kochia (kochia (Kochia scoparia); [19]): 55
- Lambsquarters plant response rating [8, 13]: 80
- Plant response rating, Lambsquarters [8, 14]: 85
- Plant response rating, Lambsquarters [8, 15]: 85
- Plant response rating (scale of 0 to 100), Lambsquarters ([8]; Preemergence, 31 g ai/ha): 100
- Plant response rating, Lambsquarters [8, 16]: 100
- Plant response rating, Lambsquarters [8, 17]: 100
- Plant response rating, Lambsquarters [8, 18]: 100
- Plant response rating, Lambsquarters [8, 19]: 85
- Mustard, Wild plant response rating [9, 13]: 15
- Plant response rating, Mustard, Wild [9, 14]: 30
- Plant response rating, Mustard, Wild [9, 15]: 75
- Plant response rating (scale of 0 to 100), Mustard, Wild ([9]; Preemergence, 31 g ai/ha): 40
- Plant response rating, Mustard, Wild [9, 16]: 40
- Plant response rating, Mustard, Wild [9, 17]: 45
- Plant response rating, Mustard, Wild [9, 18]: 65
- Plant response rating, Mustard, Wild [9, 19]: 40
- Speedwell plant response rating [10, 13]: 35
- Plant response rating, Speedwell [10, 14]: 100
- Plant response rating, Speedwell [10, 15]: 100
- Plant response rating (scale of 0 to 100), Speedwell ([10]; Preemergence, 31 g ai/ha): 75
- Plant response rating, Speedwell [10, 16]: 100
- Plant response rating, Speedwell [10, 17]: 100
- Plant response rating, Speedwell [10, 18]: 100
- Plant response rating, Speedwell [10, 19]: 70
- Wheat, Winter plant response rating [11, 13]: 0
- Plant response rating, Wheat, Winter [11, 14]: 5
- Plant response rating, Wheat, Winter [11, 15]: 10
- Plant response rating (scale of 0 to 100), Wheat, Winter ([11]; Preemergence, 31 g ai/ha): 0
- Plant response rating, Wheat, Winter [11, 16]: 0
- Plant response rating, Wheat, Winter [11, 17]: 0
- Plant response rating, Wheat, Winter [11, 18]: 5
- Plant response rating, Wheat, Winter [11, 19]: 5
- Windgrass plant response rating [12, 13]: 75
- Plant response rating, Windgrass [12, 14]: 80
- Plant response rating, Windgrass [12, 15]: 90
- Plant response rating (scale of 0 to 100), Windgrass ([12]; Preemergence, 31 g ai/ha): 75
- Plant response rating, Windgrass [12, 16]: 85
- Plant response rating, Windgrass [12, 17]: 100
- Plant response rating, Windgrass [12, 18]: 100
- Plant response rating, Windgrass [12, 19]: 75
